# US10688105B2, “Method of treating refractory rheumatoid arthritis associated with p53 mutation” (priority 2017, dated 2020)
# Assays:
# RAFLS [1] = assay: Annexin V flow cytometry cell death in RAFLS; format: cell-based; details: 24 h; for celastrol-mediated autophagic cell death with inhibitor: 2 μM celastrol with 5 mM 3-MA or 5 μM BAPTA/AM
# Experimental: (§1) Annexin V flow cytometry analysis was applied. Cell death and viability are measured using an Annexin V staining kit (BD Biosciences, San Jose, Calif., USA). Briefly, RAFLS are treated with 0-2 μM celastrol for 24 h. Cells are then harvested and analysed by multiparametric flow cytometry using FITC-Annexin V and Propidium iodide staining (BD Biosciences, San Jose, Calif., USA) according to the manufacturer's instructions. Flow cytometry is then carried out using a FACSCalibur flow cytometer (BD Biosciences, San Jose, Calif., USA). Data acquisition and analysis is performed with CellQuest (BD Biosciences, San Jose, Calif., USA). Data are obtained from three independent experiments.
# as §1, with “performed.” for “applied.”, “1 or 2” for “0-2”, “celastrol in the presence or absence of autophagic inhibitor, 3-MA or calcium chelator, BAPTA/AM (BM)” for “celastrol”
# RASFs [2] = assay: Cytosolic Ca2+ dynamic, FLIPR Calcium 6 Assay Kit in RASFs; format: cell-based, human; details: for celastrol-induced calcium dynamic change under co-/pre-treatment: 1 μM celastrol with 5 μM Compound C or 1 μM thapsigargin; for calcium dynamic change: 1 μM, compound alone
# Experimental: Intracellular cytosolic Ca^2+ dynamic was measured using the FLIPR Calcium 6 Assay Kit (Molecular Devices) according to the manufacturer's instructions. In brief, RASFs were plated at a density of 10000 cells per well in black wall/clear bottom 96-multiwell plates from Costar (Tewksbury, Mass., USA) and cultured for 24 h before treatment. After that, calcium 6 reagent was added directly to cells, and cells were incubated for an additional 2 h at 37° C. and 5% CO2. Indicated concentrations of celastrol or thapsigargin were then added to the wells and immediately subjected to data acquisition on the SpectraMax Paradigm Multi-Mode Microplate Reader (Molecular Devices) at room temperature using a 1-s reading interval throughout the experiments.
# RAFLS [3] = assay: Endogenous LC3-II puncta (autophagy) in RAFLS; format: cell-based, human; details: 24 h
# Experimental: RAFLS were treated with DMSO as a control group or celastrol at a concentration of 0.25, 0.5, 1 or 2 μM for 24 h.
# (§2) Data from the bar chart represented the mean values±S.D. of three independent experiments; error bars, S.D. ***, P<0.001.
# (§3) In order to determine endogenous expression of LC3-II, RASFs or RAFLS treated with indicated time and concentrations of celastrol (Cel) were fixed and visualised by fluorescence microscopy after staining with an LC3-II antibody followed by TRITC-conjugated anti-mouse secondary antibody.
# To determine the endogenous expression of LC3-II, RAFLS were treated with indicated concentrations of celastrol in the presence or absence of BAPTA/AM (BM) for 24 h. The cells were then fixed and visualised by fluorescence microscopy after staining with an LC3-II antibody followed by TRITC-conjugated anti-mouse secondary antibody.
# RASFs [4] = assay: LC3 conversion Western blot in RASFs; format: cell-based, human; details: 2 μM celastrol, 10 μM BAPTA/AM
# Experimental: In a detection of autophagic marker protein LC3 conversion, after celastrol treatments with or without the calcium chelator, BAPTA/AM (BM), RASFs were harvested and lysed in RIPA buffer (Cell Signaling Technologies Inc. (Beverly, Mass.). The cell lysates were then resolved by SDS-PAGE. After electrophoresis, the proteins from SDS-PAGE were transferred to nitrocellulose membrane which was then blocked with 5% non-fat dried milk for 60 minutes. The membrane was then incubated with LC3 primary antibodies (1:1000) in TBST overnight at 4° C. After that, the membrane was further incubated with HRP-conjugated secondary antibodies for 60 minutes. Finally, protein bands were visualized by using the ECL Western Blotting Detection Reagents (Invitrogen, Paisley, Scotland, UK).
# [5] = tested on: adjuvant-induced arthritis (AIA) rat model; assay: Adjuvant-induced arthritis (AIA) rat model; details: AIA rats; for microCT of hind joints: swollen joints and cartilage destruction: left hind paw
# RAFLS p53 WT = assay: MTT cytotoxicity assay, RAFLS Ctrl p53 WT; format: cell-based, human
# Experimental: (§4) Cytotoxicity Assays were performed. […] Data were obtained from triplication independent experiments.
# RAFLS p53 N239S = assay: MTT cytotoxicity assay, RAFLS transfected with p53 mutant N239S; format: cell-based, human
# Experimental: as §4
# RAFLS p53 R213* = assay: MTT cytotoxicity assay, RAFLS transfected with p53 mutant R213*; format: cell-based, human
# Experimental: as §4
# [6] = MTT cytotoxicity assay, RAFLS; format: cell-based; details: human
# Description: Data were obtained from triplication independent experiments.
# P-gp ATPase = molecular target: T1, P-gp ATPase (Homo sapiens, UniProt P08183); assay: Pgp-Glo assay of P-gp ATPase activity; format: biochemical; details: celastrol 0.5, 1, 2 μM with 200 μM verapamil and ATP, 1 hour, 37° C.
# T1 construct: purchased Promega, Madison, Wis
# T1 sequence (P08183 whole entry): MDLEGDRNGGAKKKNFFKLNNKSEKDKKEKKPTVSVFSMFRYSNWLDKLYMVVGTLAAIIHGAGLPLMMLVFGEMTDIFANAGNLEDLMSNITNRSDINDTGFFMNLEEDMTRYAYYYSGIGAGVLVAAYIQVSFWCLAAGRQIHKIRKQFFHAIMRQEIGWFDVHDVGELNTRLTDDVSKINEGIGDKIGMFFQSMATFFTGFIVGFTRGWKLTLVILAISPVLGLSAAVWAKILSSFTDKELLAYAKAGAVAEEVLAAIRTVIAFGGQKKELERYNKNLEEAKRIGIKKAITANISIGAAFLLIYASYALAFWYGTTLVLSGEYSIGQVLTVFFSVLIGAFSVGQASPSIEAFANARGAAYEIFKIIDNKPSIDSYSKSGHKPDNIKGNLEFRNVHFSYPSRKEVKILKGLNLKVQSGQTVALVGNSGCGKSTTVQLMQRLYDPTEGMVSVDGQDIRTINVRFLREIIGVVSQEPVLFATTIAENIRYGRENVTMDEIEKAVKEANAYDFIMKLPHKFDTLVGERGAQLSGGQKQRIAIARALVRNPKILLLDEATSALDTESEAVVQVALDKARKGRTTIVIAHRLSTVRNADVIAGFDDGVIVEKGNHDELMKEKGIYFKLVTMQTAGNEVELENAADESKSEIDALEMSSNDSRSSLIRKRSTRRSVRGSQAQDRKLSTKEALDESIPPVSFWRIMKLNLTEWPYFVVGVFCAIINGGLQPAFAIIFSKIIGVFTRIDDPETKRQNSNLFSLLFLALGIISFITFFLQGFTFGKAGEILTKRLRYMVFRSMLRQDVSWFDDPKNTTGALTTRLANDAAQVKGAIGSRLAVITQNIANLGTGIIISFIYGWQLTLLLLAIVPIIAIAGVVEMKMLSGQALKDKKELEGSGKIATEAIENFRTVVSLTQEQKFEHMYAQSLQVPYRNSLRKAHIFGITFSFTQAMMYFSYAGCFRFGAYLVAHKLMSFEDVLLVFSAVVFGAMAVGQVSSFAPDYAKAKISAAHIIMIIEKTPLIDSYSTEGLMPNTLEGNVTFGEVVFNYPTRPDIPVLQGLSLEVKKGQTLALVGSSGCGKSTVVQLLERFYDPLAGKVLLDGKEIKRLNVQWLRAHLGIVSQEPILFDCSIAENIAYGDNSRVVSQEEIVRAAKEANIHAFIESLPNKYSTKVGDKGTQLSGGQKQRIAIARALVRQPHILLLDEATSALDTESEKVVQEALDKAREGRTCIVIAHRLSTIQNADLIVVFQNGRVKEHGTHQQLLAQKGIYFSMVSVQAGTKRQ
# Experimental: The luminescence was then measured by P-gp Glo™ Assay System. Change in luminescence (RLU) represented the activity of P-gp, whereas the activity shown in the control group indicated the basal P-gp ATPase activity.
# The luminescence of the sample reflects the ATP level in the sample, which is negatively correlated with the activity of P-gp ATPase and was recorded using the SpectraMax Paradigm Multi-Mode Microplate Reader (Molecular Devices). DMSO-treated activities are expressed as the percentage of basal activity. By comparing basal activity to test compound-treated activities, the compounds can be ranked as stimulating, inhibiting, or having no effect on basal P-gp ATPase activity.
# P-gp = assay: Rho123 exclusion assay in P-gp overexpressing RAFLS; format: cell-based, human; details: relatively low doses of celastrol
# Experimental: At the end of the incubation, the accumulation of Rho123 was stopped by washing the cells five times with ice-cold PBS. After cell centrifugation, cell pellets were resuspended in 400 μL PBS. […] All data acquisition and analyses were performed with CellQuest (BD Biosciences, San Jose, Calif., USA) in triplicate in three independent experiments, and the results were shown as the mean of fluorescence intensity.
# RASFs [7] = assay: Endogenous LC3-II puncta (autophagy) in RASFs; format: cell-based, human; details: 1 μM, 10-240 min
# Experimental: RASFs were treated with DMSO as a control group or 1 μM celastrol for 10, 30, 60 or 240 min. The cells were then fixed and visualized for endogenous LC3-II expression by fluorescence microscopy using LC3-II antibody plus TRITC-conjugated anti-mouse secondary antibody.
# as §2, §3
# RAFLS [8] = assay: Cytosolic calcium level by Fluo-3 flow cytometry in RAFLS; format: cell-based, human; details: 1 μM 0-24 h, 0.1-2 μM 4 h
# Experimental: Flow cytometry analysis was performed to determine the cytosolic calcium level. Intracellular free calcium was measured by a fluorescent dye, Fluo-3. Briefly, RAFLS were washed twice with DMEM media after Celastrol treatment (1 μM) for 4 h. Then cell suspensions were incubated with 5 μM Fluo-3 at 37° C. for 30 min. Then the cells were washed twice with HBSS. After re-suspended cell samples were subjected to FACS analysis. At least 10,000 events were analyzed.
# [9] = tested on: P-gp-over-expressing RAFLS; assay: Annexin V flow cytometry, celastrol with methotrexate in RAFLS; format: cell-based, human; details: celastrol 0.1-0.2 μM with 450 μM MTX, 24 h
# Experimental: Celastrol-induced cell death was measured by flow cytometry analysis after annexin V staining.
# as §1, with “performed.” for “applied.”, “Briefly, RAFLS are treated with 0-2 μM celastrol for 24 h.” left out
# in vitro = details: human
# Experimental: (§5) All test compounds were dissolved in DMSO at final concentrations of 50 mmol/L and stored at −20° C. before use. Cytotoxicity was assessed using the 3-(4, 5-dimethylthiazol-2-yl)-2, 5-diphenyltetrazolium bromide (MTT) (5.0 mg/ml) assay. Briefly, 4×10^3 RAFLS cells overexpressed with P-gp were seeded per well in 96-well plates before drug treatment. […] Cells without drug treatment were used as control. Subsequently, MTT (10 μL) was added to each well and incubated at 37° C. for 4 hours followed by the addition of 100 μL solubilization buffer (10% SDS in 0.01 mol/L HCl) and overnight incubation. A570 nm was determined from each well on the next day. The percentage of cell viability was calculated using the following formula: Cell viability (%)=Atreated/Acontrol×100. Data were obtained from triplication independent experiments.
# [10] = tested on: RAFLS p-gp over expression; assay: MTT cytotoxicity assay, RAFLS overexpressed with P-gp; details: RAFLS p-gp over expression vs RAFLS
# Experimental: as §5
# [11] = Homo sapiens, RA-FLS, 72 h, read-out: mean IC50
# [12] = celastrol 1 and 2 mg/kg i.p., 36 days, vs vehicle-treated
# [13] = RAFLS cells overexpressing P-gp
compound,measurement,setting,value
"Cn1cnc(N)c2ncnc1-2 [3-MA, 3-methyladenine]",celastrol-mediated autophagic cell death with inhibitor,RAFLS [1],completely abolished
c1cc(-c2cnn3cc(-c4ccc(OCCN5CCCCC5)cc4)cnc23)ccn1 [AMPK inhibitor],celastrol-induced calcium dynamic change under co-/pre-treatment,RASFs [2],no inhibitory effect
"CC(=O)OCOC(=O)CN(CC(=O)OCOC(C)=O)c1ccccc1OCCOc1ccccc1N(CC(=O)OCOC(C)=O)CC(=O)OCOC(C)=O [BAPTA/AM, reference compound]",celastrol-induced endogenous LC3-II puncta formation with co-treatment,"RAFLS [3]; 1 μM celastrol, 10 μM BAPTA/AM",dramatically suppressed
same,celastrol-mediated autophagic cell death with inhibitor,RAFLS [1],completely abolished
same,LC3-II conversion with co-treatment,RASFs [4],inhibited LC3-II conversion
same,anti-arthritic effect of celastrol with calcium chelator,[5]; celastrol 1 mg/kg + BAPTA/AM 3.5 mg/kg,retarded the anti-arthritic effect of celastrol
"CC1=C(O)C(=O)C=C2C1=CC=C1[C@@]2(C)CC[C@@]2(C)[C@@H]3C[C@](C)(C(=O)O)CC[C@]3(C)CC[C@]12C [Celastrol, celastrol]",IC50,RAFLS p53 WT; [11],0.996 µM
same,"Resistant factor, RF",RAFLS p53 WT; RAFLS Ctrl p53 WT (reference),RF: 1
same,IC50,RAFLS p53 N239S; [11],1.01 µM
same,"Resistant factor, RF",RAFLS p53 N239S; RAFLS p53 N239S vs p53 WT,RF: 1.01
same,IC50,RAFLS p53 R213*; [11],0.722 µM
same,"Resistant factor, RF",RAFLS p53 R213*; RAFLS p53 R213* vs p53 WT,RF: 0.72
same,IC50 at 72 h,[6],1.3 µM
same,verapamil-activated P-gp activity,P-gp ATPase,directly suppresses the activated form of P-gp in dose-dependently manner
same,Rho123 accumulation in P-gp overexpressing RAFLS,P-gp,gradually increased Rho123 accumulation in a dose-dependent manner
same,"autophagy induction, endogenous LC3-II puncta",RASFs [7],induced autophagy in time-dependent manner
same,"autophagy induction, endogenous LC3-II puncta",RAFLS [3]; 0.25-2 μM,dose-dependent autophagy induction
same,"cell death (cytotoxicity), annexin V",RAFLS [1]; 0.25-2 μM,dose-dependent cytotoxicity
same,calcium mobilization (Fluo-3),RAFLS [8],time and dose-dependently disturbs calcium homeostasis
same,calcium dynamic change,RASFs [2],stimulated relative weak calcium dynamic
same,MTX-mediated cell death (sensitization),[9],potentiating the toxicity of MTX
same,IC50 at 72 h,in vitro,1.45 µM
same,erythrocyte sedimentation rate (ESR),[5],down-regulated
same,body weight or organ weight,[5]; 36 days,without impairment
same,arthritic scores,[5]; [12],significantly reduced
same,hind paw volume,[5]; [12],significantly reduced
same,microCT of hind joints: swollen joints and cartilage destruction,[5],markedly improved
same,Resistant Factor,[10],1.12
"COc1cc2c(c(OC)c1OC)-c1ccc(OC)c(=O)cc1[C@@H](NC(C)=O)CC2 [Colchicine, colchicine]",IC50 at 72 h,[6],11.3 µM
same,IC50 at 72 h,in vitro,46 µM
same,Resistant Factor,[10],4.07
"C[C@@H]1C[C@H]2[C@@H]3CCC4=CC(=O)C=C[C@]4(C)[C@@]3(F)[C@@H](O)C[C@]2(C)[C@@]1(O)C(=O)CO [Dexamethasone, dexamethasone]",IC50 at 72 h,[6]; RAFLS cells,600 µM
same,IC50 at 72 h,in vitro; [13],> 2000 µM
"CN(Cc1cnc2nc(N)nc(N)c2n1)c1ccc(C(=O)N[C@@H](CCC(=O)O)C(=O)O)cc1 [Methotrexate, methotrexate]",IC50 at 72 h,[6]; RAFLS cells,219 µM
same,IC50 at 72 h,in vitro; [13],838 µM
same,erythrocyte sedimentation rate (ESR),[5],down-regulated
same,microCT of hind joints: swollen joints and cartilage destruction,[5],markedly improved
same,Resistant Factor,[10],3.83
"C[C@]12C=CC(=O)C=C1CC[C@@H]1[C@@H]2[C@@H](O)C[C@@]2(C)[C@H]1CC[C@]2(O)C(=O)CO [Prednisolone, prednisolone]",IC50 at 72 h,[6]; RAFLS cells,123 µM
same,IC50 at 72 h,in vitro; [13],216 µM
C/C=C(/C)C(=O)O[C@H]1C(C)=C2[C@H]([C@@H]1OC(=O)CCCCCCC)[C@@](C)(OC(C)=O)C[C@H](OC(=O)CCC)[C@@]1(O)[C@H]2OC(=O)[C@@]1(C)O [thapsigargin],celastrol-induced calcium dynamic change under co-/pre-treatment,RASFs [2],extremely low response in calcium mobilization upon celastrol treatment
same,calcium dynamic change,RASFs [2],significantly induced the calcium dynamic change
